# Structures can show the parent of a compound that is named as a salt.
# Columns and labels:
# [1] = tested on: SB.mhdgc-1; test: area under the dose-response curve of % viability (trapezoidal, 11 doses) (% viability x log10 concentration); higher = less cytotoxic; conditions: SB.mhdgc-1 (hereditary c.1380delA CDH1 gastric cancer)
# In short: (§1)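 Compound in DMSO was pinned (23 nL) at 11 threefold-diluted concentrations into wells containing 500 patient-derived gastric cancer cells, hereditary or sporadic, in 5 μL medium per 1536 well. Cells were incubated for 48 h, then exposed to CellTiter-Glo for 30 min at room temperature. Luminescence was measured on a ViewLux. The values are viability normalised to DMSO, either at the highest concentration or as trapezoidal area under the curve.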
# [2] = tested on: SB.msgc-1; test: as above; conditions: SB.msgc-1 (sporadic gastric cancer)
# In short: as §1
# [3] = tested on: SB.mhdgc-1; test: viability at highest tested concentration (MAXR) relative to DMSO; higher = less cytotoxic; conditions: SB.mhdgc-1 (hereditary c.1380delA CDH1 gastric cancer)
# In short: as §1
# [4] = tested on: SB.msgc-1; test: as above; conditions: SB.msgc-1 (sporadic gastric cancer)
# In short: as §1
Structure (SMILES),area under the dose-response curve [1],area under the dose-response curve [2],viability [3] [%],viability [4] [%]
CO[C@H]1C[C@@H]2CC[C@@H](C)[C@@](O)(O2)C(=O)C(=O)N2CCCC[C@H]2C(=O)O[C@H]([C@@H](C)C[C@@H]2CC[C@@H](O)[C@H](OC)C2)CC(=O)[C@H](C)/C=C(\C)[C@@H](O)[C@@H](OC)C(=O)[C@H](C)C[C@H](C)/C=C/C=C/C=C/1C [Sirolimus] (top concentration 46.0829 µM),370,470,67.2,76.1
O=C1N(c2ccccc2)c2ccccc2C1(Cc1ccncc1)Cc1ccncc1 [Linopirdine] (top concentration 46.0829 µM),369,540,5.06,57.2
COc1cc(F)c(F)c(Nc2ccc(I)cc2F)c1N[S+](=O)([O-])C1(C[C@H](O)CO)CC1 [RDEA-119] (top concentration 46.0829 µM),443,484,33.3,59.3
Clc1ccc(-c2nc3sccn3c2/C=N/OCc2ccc(Cl)c(Cl)c2)cc1 [CITCO] (top concentration 46.0829 µM),495,490,46.2,54.2
O=C(NCc1ccccc1)c1csc(Nc2ccncn2)n1 [Thiazovivin] (top concentration 46.0829 µM),413,496,15.5,56.6
CC(/C=C1\SC(=S)N(CC(=O)O)C1=O)=C\c1ccccc1 [Epalrestat] (top concentration 46.0829 µM),499,565,84.9,104
Cc1cccc(-c2n[nH]cc2-c2ccc3ncccc3n2)n1 [SJN 2511] (top concentration 46.0829 µM),560,558,121,113
CN(Cc1cc(Br)cc(Br)c1N)C1CCCCC1 [Bromhexine hydrochloride] (top concentration 46.0829 µM),578,575,106,105
CC(C(C)N1CC(=O)NC(=O)C1)N1CC(=O)NC(=O)C1 (stereo not drawn) [ICRF-193] (top concentration 46.0829 µM),478,479,73.7,93.8
COc1ccc(-c2nc3cc(C4=NNC(=O)CC4C)ccc3[nH]2)cc1 (stereo not drawn) [Pimobendan] (top concentration 46.0829 µM),526,530,131,106
O=C([O-])[C@H](CC(=O)N1C[C@H]2CCCC[C@H]2C1)Cc1ccccc1 [Mitiglinide calcium hydrate] (top concentration 46.0829 µM),547,549,114,109
CC(=O)OC\C1=C(\[N@]2[C@@H](SC1)[C@H](N)C2=O)C(O)=O [7-Aminocephalosporanic acid] (top concentration 46.0829 µM),512,532,86.8,112
Cc1cccc(Nc2ccncc2[S+](=O)([O-])NC(=O)NC(C)C)c1 [Torasemide] (top concentration 46.0829 µM),459,521,105,93
OC(=O)CNC(=O)\C1=C(/O)C2=CC=CC=C2N(CC3=CC=CC=C3)C1=O [IOX2] (top concentration 46.0829 µM),475,543,88.1,89.6
Cc1ccccc1C(=O)c1ccc(Nc2ccc(Br)cc2N)cc1Cl [EO-1428] (top concentration 46.0829 µM),525,528,53.6,70.2
CC(C)CNc1ccnc(NCc2csc(-c3ccccc3)n2)n1 [KHS101] (top concentration 46.0829 µM),438,449,10.6,34.8
CC(C)C1=C(O)C=C(O)C(=C1)C/2=N/NC(=O)N2C3=CC4=C(C=C3)[N](C)C=C4 [Ganetespib] (top concentration 46.0829 µM),336,357,52.9,49.2
CCNC(=O)C[C@@H]1\N=C(C2=CC=C(Cl)C=C2)/C3=C(C=CC(=C3)OC)[N]4C(=NN=C14)C [I-BET762] (top concentration 46.0829 µM),478,372,84.1,14
Cn1c(CCCC(=O)O)nc2cc(N(CCCl)CCCl)ccc21 [Bendamustine] (top concentration 46.0829 µM),542,541,60.2,84.1
CN[C@H]1[C@H](O[C@@H]2[C@H](O[C@@H]3[C@@H](O)[C@@H](O)[C@@H](NC(=N)N)[C@@H](O)[C@H]3NC(=N)N)O[C@H](C)[C@@]2(O)C=O)O[C@@H](CO)[C@@H](O)[C@H]1O [Streptomycin sulfate] (top concentration 13.5607 µM),617,611,137,126
Cc1c(C)c2c(c(C)c1O)CCC(C)(COc1ccc(CC3SC(=O)NC3=O)cc1)O2 (stereo not drawn) [Troglitazone] (top concentration 46.0829 µM),544,471,98.6,69.9
Cc1ncc([N+](=O)[O-])n1CC(C)O (stereo not drawn) [Secnidazole] (top concentration 46.0829 µM),513,507,90.1,86.5

# Reference: the supplement of paper PMC5412046
